Assay: direct peptide reactivity assay (DPRA), in-chemico, unbound peptide detected with Ellman's reagent
Conditions: 24 h reaction; allergen 5 mM, peptide 0.5 mM; absorbance at 415 nm with DTNB; urushiol structures I-V; n = 3; FIG. 2
Protocol: The absorbance is plotted on the y-axis. The peptide-allergen reactions were realized according to a direct peptide reactivity assay. The test is referred to as the in-chemico method, that is to say no cells are used, but a chemical reaction is carried out.
The direct peptide reaction assay (DPRA) is an OECD-validated test method.
The native, still-unbound peptide is detected by reaction with Ellman’s reagent and corresponding absorbance measurement. The direct peptide reactivity assay (DPRA) is a chemical method for predicting epidermal protein binding. DPRA uses for example HPLC to measure the depletion of peptides in solution after exposure to test chemicals.
RFAACAA was selected as an example of a peptide of the invention.
In the DPRA method, the absorbance at 415 nm is determined as the measured variable.
The allergen concentration is in the investigations carried out a standard 5 mM and thus 10 times the concentration of the peptide used (0.5 mM).
The reaction courses shown were determined colorimetrically through the reaction of the peptide with Ellmann’s reagent in a photometer. In this reaction, DTNB ((5,5′-dithiobis-2-nitrobenzoic acid, Ellmann’s reagent) is cleaved and attached to the SH residue of the amino acid cysteine of the peptides of the invention (RFAACAA).
The SH radical is at the same time the reactive binding site of the peptide with the allergens. […]

Substance | reactivity of peptides with urushiol allergens (fall in peptide, protective activity)
RFAACAA [Arg Phe Ala Ala Cys Ala Ala] | very high reactivity
acetyl-arginine-phenylalanine-alanine-alanine-cysteine-alanine-alanine [Ac-RFAACAA] | very high reactivity

— patent publication US20230181674A1, “ALLERGEN PROTECTION AGAINST URUSHIOLS” (BEIERSDORF AG, priority 2020, published 2023)
